Each structure is given as a SMILES string. Values joined by “and” are separate entries in the source; they are usually repeats but may differ in a detail not shown here. Equal values may be shown once.

The test concerns INS-1E rat beta cells, no cytokines, CellTiter-Glo ATP, 48 h. In words: ATP level change in INS-1E without cytokines, dose response, counter-screen for beta-cell apoptosis protection project, INS-1E rat cells, ATP luminescence, cherry pick (AID 463229).
Broadly, the AC50 is the concentration giving half of the maximal activity seen. `CC(=O)c1c(C)[nH]c(C(=O)OCC(=O)Nc2ccc(Cl)cc2[N+](=O)[O-])c1C`: the half-maximal activity concentration (AC50) is 2.82 µM.

`O=C(NCC1COc2ccccc2O1)c1cccc(S(=O)(=O)NCc2ccccc2)c1` (stereo unspecified): the half-maximal activity concentration (AC50) is 8.8 µM.

For `CCn1c(Cl)c(C=O)s/c1=N\S(=O)(=O)c1ccccc1`, the concentration at half-maximal activity (AC50) is 6.63 µM.

Regarding `CC1=C(CC(=O)c2ccc(Cl)cc2)C(=O)c2ccccc2C1=O`, the half-maximal activity concentration (AC50) was 26.6 µM.

Consider `COc1cccc(/C=N/Nc2cc(C)nc(-c3ccccc3O)n2)c1O`, for which the half-maximal activity concentration (AC50) was 15.1 µM.

With `O=c1c2ccccc2nc(COc2ccccc2)n1/N=C/c1ccc(O)cc1O`, the AC50 is 15.9 µM.

As for `O=C(N/N=C(\c1ccccc1)c1cccnc1)c1cccc(F)c1`, the AC50 was 2.56 µM.

As to `COc1ccc(S(=O)(=O)N(C(=O)c2ccco2)c2cc3sc(=O)oc3c3ccccc23)cc1`, the half-maximal activity concentration (AC50) is 14.5 µM.

As for `Oc1c(CN2CCN(c3ccc(F)cc3)CC2)cc(Cl)c2cccnc12`, the AC50 is 4.27 µM.

In the case of `CCn1cc(C(=O)O)c(=O)c2cc(F)c(N/N=C/c3ccccc3[N+](=O)[O-])cc21`, the AC50 is 7.62 µM.

With `O=C(Cn1c(-c2ccccc2)c[n+]2ccsc12)c1ccc([N+](=O)[O-])cc1`, the AC50 was 6.04 µM.

`COc1ccccc1-n1c(=O)oc2ccc(Cl)cc2c1=O`: the concentration at half-maximal activity (AC50) is 11.8 µM.

For the molecule `NC1=NC[C@@H](CC2CCCCC2)N1CCc1cc(C(F)(F)F)cc(C(F)(F)F)c1`, the concentration at half-maximal activity (AC50) was 9.46 µM.

Regarding `O=C(N/N=C/c1cc(Cl)ccc1O)c1ccc(Br)cc1`, the concentration at half-maximal activity (AC50) is 4.07 µM.

For `N/C(=N\OC(=O)c1cccc(Cn2cc(C(F)(F)F)ccc2=O)c1)c1ccc(Cl)cc1`, the AC50 is 8.25 µM.

In the case of `O=c1[nH]c(=O)n(Cc2ccco2)c2c1C(C(F)(F)F)(C(F)(F)F)N=C(c1ccc(F)cc1)N2`, the concentration at half-maximal activity (AC50) is 1.39 µM.

As for `CCOc1ccc(OCc2ccc(C(=O)NN=Cc3ccc[nH]3)cc2)cc1`, the AC50 was 0.739 µM.

Consider `O=C(CCl)N(c1ccccc1)C1CCCCC1`, for which the AC50 was 5.56 µM.

`CC(C)(C)c1ccc(NNC(=O)C2CCC2)cc1`: the concentration at half-maximal activity (AC50) is 9.64 µM.

As for `CN(C)c1ccc(/C=C/c2ccc3ccccc3n2)cc1`, the AC50 is 2.28 µM.

Take `COc1cccc(/C=N/NC(=O)c2c(C)nc3ccc(Cl)cn23)c1O`: the AC50 is 3.81 µM.

Turning to `N#CC(C#N)=C(Nc1ccc(F)cc1)SCc1cccc(F)c1`, the AC50 was 5.08 µM.

For the molecule `Cn1ncnc2c(=O)n(C)c(=O)nc1-2`, the half-maximal activity concentration (AC50) was 1.48 µM.

As for `Cn1nccc1C(=O)N/N=C/c1c(O)ccc2ccccc12`, the half-maximal activity concentration (AC50) is 3.54 µM.

As to `CC(=O)c1ccc(NC(=S)NCc2cccnc2)cc1`, the AC50 was 5.53 µM.

In the case of `Nc1nc(Cl)cc(N2CCC(c3cc(-c4ccc(Cl)cc4)n[nH]3)CC2)n1`, the half-maximal activity concentration (AC50) is 5.56 µM.

As to `O=C(N/N=C/c1cc(Br)cc(Br)c1O)c1ccncc1`, the AC50 is 7.34 µM.

On to `COc1ccccc1CNc1ncnc2sccc12`, for which the AC50 was 11.9 µM.

Turning to `COc1cccc(/C=N/NC(=O)c2c(C)nc3ccc(Br)cn23)c1O`, the half-maximal activity concentration (AC50) was 3.16 µM.

`CC(C)COCc1ccc(O)c2ncccc12`: the AC50 was 8.01 µM.

Take `O=C(c1cc(COc2ccc3ncccc3c2)on1)N1CCCCCC1`: the AC50 was 8.02 µM.

Regarding `O=C(/C=C/NNC(=O)c1ccccc1)c1ccc([N+](=O)[O-])cc1`, the AC50 is 5.76 µM.

`O=C(N/N=C/c1sc(N2CCOCC2)nc1-c1ccccc1)c1cccc(S(=O)(=O)N2CCCC2)c1`: the AC50 is 2.25 µM.

With `C[n+]1c2n(c3ccccc31)N=C(c1cc(C(C)(C)C)c(O)c(C(C)(C)C)c1)CS2`, the AC50 is 0.39 µM.

`CC(=O)N(C)C1=C(N2CCOCC2)C(=O)c2ccccc2C1=O`: the half-maximal activity concentration (AC50) is 7.91 µM.

Consider `CCCCn1c(=N)n(CC(=O)c2ccc(Br)s2)c2ccccc21`, for which the AC50 was 13.1 µM.

Take `COCCNC(=O)CSC1=N/C(=C/c2ccc(Cl)c(Cl)c2)C(=O)N1c1ccccc1F`: the AC50 is 8.25 µM.

On to `O=C(NC(c1cccnc1)C(F)(F)F)c1cc(COc2ccc3c(c2)CCCC3)on1` (stereo unspecified), for which the concentration at half-maximal activity (AC50) was 4.62 µM.

Consider `CC1=C/C(=N\OS(=O)(=O)c2ccccc2)C(C)=CC1=O`, for which the AC50 is 1.52 µM.

As for `Cc1sc2ncnc(NCC(C)(C)N3CCOCC3)c2c1C`, the AC50 is 6.11 µM.

On to `C=CCCc1ccc(C#N)c(SCc2c(C(=O)OCC)c3cc(OC(C)=O)c(Br)cc3n2C)n1`, for which the AC50 was 1.07 µM.

For the molecule `Cc1cc(-c2n[nH]c(=S)n2/N=C/C(Br)=C/c2ccccc2)n[nH]1`, the concentration at half-maximal activity (AC50) is 15.6 µM.

Regarding `CN(c1ccccc1)c1ccc(/C=C/[N+](=O)[O-])cc1`, the concentration at half-maximal activity (AC50) was 8.01 µM.

For the molecule `O=C1/C(=C\c2cccnc2)CN(Cc2ccccc2)C/C1=C\c1cccnc1`, the AC50 was 7.58 µM.

Regarding `O=C(N/N=C\c1cc(Cl)ccc1O)c1ccc(S(=O)(=O)N2CCCCC2)cc1`, the concentration at half-maximal activity (AC50) was 6.44 µM.

Regarding `CCCSc1nsc(NC(=O)Nc2ccc(F)cc2F)n1`, the concentration at half-maximal activity (AC50) is 6.99 µM.

`CC[C@H](C)[C@@H](C(=O)NCCCCCCCCCCC(=O)N1CCN(C(=O)OC(C)(C)C)CC1)n1cc(CCCCCNC(=O)OC(C)(C)C)nn1`: the AC50 is 5.92 µM.

On to `CCCCCCC[n+]1ccc(-c2cc[n+](CCCCCCC)cc2)cc1`, for which the AC50 is 3 µM.

Consider `C/C(=N\NC(=O)c1nnn(-c2nonc2N)c1CN1CCc2ccccc21)c1ccccc1O`, for which the AC50 was 11.4 µM.

`Oc1ccccc1/C=N/Nc1nc2ccccc2o1`: the concentration at half-maximal activity (AC50) is 4.62 µM.

In the case of `O=C(c1ccc2c(c1)[nH]c(=S)n1c3ccccc3nc21)N1CCN(c2cccc(Cl)c2)CC1`, the concentration at half-maximal activity (AC50) is 14.5 µM.

Turning to `C/C(=N\NC(=O)c1ccccc1OCc1ccc(F)cc1)c1ccccn1`, the AC50 is 8.35 µM.

For the molecule `COc1ccc(-c2csc(NC(=O)c3ccccc3NS(=O)(=O)c3ccc(F)c(F)c3)n2)cc1`, the AC50 is 3.52 µM.

With `COC(=O)c1c(C)oc2ccc(N(C(=O)c3ccncc3)S(=O)(=O)c3ccc4ccccc4c3)cc12`, the AC50 is 17.9 µM.

`O=C(C1=C[C@@H](c2ccc(C(F)(F)F)cc2)C[C@@H](OCCCCO)O1)N1CCN(Cc2ccccc2)CC1`: the half-maximal activity concentration (AC50) is 12.6 µM.

As to `Cc1ccc(-n2c(-c3ccccc3)c[n+]3c2CCC3)cc1`, the half-maximal activity concentration (AC50) was 3.11 µM.

For `CC(C)Oc1ccc(C(CCN)C2CCCCC2)cc1` (stereo unspecified), the AC50 is 13.3 µM.

For `CN(C)c1cc[n+](CC(=O)c2ccc(-c3ccccc3)cc2)cc1`, the AC50 is 1.22 µM.

As to `O=C(NC1=C(Nc2ccc(Cl)cc2)C(=O)c2ccccc2C1=O)c1ccccc1`, the AC50 was 21.8 µM.

Consider `CCCCC(=O)NC(c1ccco1)c1cc(Cl)c2cccnc2c1O` (stereo unspecified), for which the concentration at half-maximal activity (AC50) was 12.4 µM.

Take `COc1cccc(/C=N/Nc2ncnc(Cl)c2N)c1O`: the half-maximal activity concentration (AC50) was 4.32 µM.

With `O=C(NCc1cccnc1)c1cc(-c2ccco2)on1`, the concentration at half-maximal activity (AC50) was 2.27 µM.

Regarding `O=C(CNc1ccccc1)N/N=C/c1c(O)ccc2ccccc12`, the concentration at half-maximal activity (AC50) is 15.8 µM.

For `O=[N+]([O-])c1ccc(-c2nc(C(Cl)Cl)c3ccccc3n2)cc1`, the AC50 is 1.66 µM.

`CCc1cc[n+](C2=C([O-])c3ccccc3C(=O)/C2=N\S(=O)(=O)c2cccs2)cc1`: the AC50 was 9.35 µM.

Turning to `Cn1nccc1C(=O)NC1CCCc2c1cnn2-c1ccc(F)cc1F` (stereo unspecified), the AC50 is 2.48 µM.

With `O=[N+]([O-])c1ccc(N=Nc2c(Cl)cc(O)cc2Cl)cc1`, the AC50 was 2.08 µM.

Regarding `O=C(Nc1nc(-c2ccccn2)cs1)c1ccc(F)c(S(=O)(=O)N2CCOCC2)c1`, the AC50 is 7.51 µM.

With `O=C(c1ccc([N+](=O)[O-])s1)N1CCN(c2cccc(Cl)c2)CC1`, the half-maximal activity concentration (AC50) is 19.3 µM.

Consider `Cc1ccc(NC(=O)c2ccccc2NS(=O)(=O)c2ccc(Cl)s2)cc1`, for which the concentration at half-maximal activity (AC50) is 5.78 µM.

Consider `CC(=O)c1ccc(OCc2cc(C(=O)N3CCCCC3c3cccnc3)no2)cc1` (stereo unspecified), for which the half-maximal activity concentration (AC50) was 22.4 µM.

Turning to `O=C(/C(=C/c1cccc(Cl)c1)c1nc2ccccc2[nH]1)c1ccccc1`, the half-maximal activity concentration (AC50) is 4.36 µM.

On to `COc1ccc(C(=O)Nc2ccccc2C(=O)N/N=C/c2ccccn2)cc1OC`, for which the half-maximal activity concentration (AC50) was 8.14 µM.

As for `COc1ccc(C)cc1Nc1n[n+](-c2ccccc2)c(-c2c(Cl)cccc2Cl)s1`, the AC50 is 4.15 µM.

As for `COc1ccc(C2CC(c3ccc4ccccc4c3OC(C)=O)=NN2C(C)=O)cc1` (stereo unspecified), the half-maximal activity concentration (AC50) was 8.47 µM.

Regarding `Cc1ccc(C(=O)N/C(=C\c2ccc(-c3ccc(Cl)cc3)o2)C(=O)NCCCN(C)C)cc1`, the AC50 is 10.9 µM.

Regarding `COc1ccc(C(CCNCc2ccc(OC(C)C)cc2)c2ccccc2OC)cc1` (stereo unspecified), the AC50 is 7.84 µM.

As for `CCN(CC)C(=O)c1ccc(S(=O)(=O)N2CCC(c3nc4ccccc4s3)CC2)cc1`, the AC50 is 7.7 µM.

In the case of `C[n+]1c2n(c3ccccc31)N=C(c1ccc(Cl)cc1)CS2`, the AC50 was 4.29 µM.

As to `CCN1C/C(=C/c2cccc([N+](=O)[O-])c2)C(=O)/C(=C/c2cccc([N+](=O)[O-])c2)C1`, the AC50 was 2.39 µM.

With `C=CCc1cccc(/C=N/NC(=O)c2ccc3nc[nH]c3c2)c1O`, the AC50 is 6.52 µM.

For the molecule `CCOc1cc(/C=N/Nc2cc(C)nc(-n3nc(C)cc3C)n2)ccc1O`, the half-maximal activity concentration (AC50) was 5.78 µM.

On to `CC(=O)NC(C)c1cc(Cl)c2cccnc2c1O` (stereo unspecified), for which the AC50 is 10.7 µM.

In the case of `CCn1c(-c2ccc(N(C)C)cc2)nc2ccccc21`, the half-maximal activity concentration (AC50) was 3.75 µM.

Turning to `O=[N+]([O-])c1cc(Cl)cc(/C=N\Nc2ccccn2)c1O`, the AC50 is 2.55 µM.

Turning to `C=C[C@H](CC(C)C)N(Cc1ccccc1)S(=O)(=O)N(Cc1ccccc1)[C@@H](C=C)CC(C)C`, the AC50 is 5.72 µM.

Regarding `COc1ccc(C2=Nn3c([n+](C)c4ccccc43)SC2)cc1`, the AC50 was 1.54 µM.

`CCOc1ccc(-n2c(-c3ccc(Br)cc3)c[n+]3c2CCCCC3)cc1`: the AC50 was 1 µM.

Consider `CC(=O)c1ccc(N2CCN(S(=O)(=O)c3ccc4c(c3)CC(C)N4C(C)=O)CC2)cc1` (stereo unspecified), for which the half-maximal activity concentration (AC50) was 8.54 µM.

Turning to `CCN(CC)c1ccc(/C=N/NC(=O)Cc2cccs2)c(O)c1`, the concentration at half-maximal activity (AC50) was 4.5 µM.

Consider `CC1=NNC(=O)/C1=C\c1cn(-c2ccccc2)nc1-c1ccccc1`, for which the concentration at half-maximal activity (AC50) was 7.57 µM.

Turning to `Fc1ccccc1/C=N/Nc1nc(-c2ccccn2)nc2ccccc12`, the half-maximal activity concentration (AC50) was 3.49 µM.

Consider `CC1CCC(C(C)C)C(OC(=O)Cn2c(COc3ccccc3)[n+](C)c3ccccc32)C1` (stereo unspecified), for which the half-maximal activity concentration (AC50) is 7.08 µM.

Take `NC(=NCCCCCCN=C(N)/N=C(\N)Nc1ccc(Cl)cc1)/N=C(\N)Nc1ccc(Cl)cc1`: the half-maximal activity concentration (AC50) was 5 µM and 5.71 µM.

For the molecule `Cc1ccccc1OCCCCn1cnc2ccccc21`, the AC50 was 7.47 µM.

With `COC(/C(=N/O)c1ccc(Cl)cc1)c1ccccc1` (stereo unspecified), the concentration at half-maximal activity (AC50) is 2.66 µM.

The record behind these values is PubChem BioAssay AID463229 (Broad Institute, 2010).
